# Ends that are not written are not given here. * marks the point of attachment. Palmitoyl = CCCCCCCCCCCCCCCC(=O)*
# Test system: nasolabial and glabellar wrinkles
# Test: Assessment of clinical efficacy: topical facial treatment for 28 days, wrinkle evaluation with Bio3D Structured-light Scanner
# Assay type: in vivo, human
# Conditions: Day 28 vs Day 0, topical formulation containing peptide at 500 ppm, 10 volunteers per group
# Method: Two groups of 10 volunteers underwent 28 days of topical treatment with the peptides SEQ NO ID 1 (Pro-Trp-Lys-Trp) or SEQ NO ID 2 (Pal-Pro-Thr-Lys-Trp) in the facial region. Nasolabial and glabellar lines were evaluated on Day 0 (before) and Day 28 (after 4 weeks of treatment) using Bio3D Structured-light Scanner. For wrinkle evaluation, images of the different areas were taken and processed through specific software. Three parameters (total area, length and depth of wrinkles) were obtained for each of the areas in each of the volunteers.
Substance,Decreased wrinkle intensity (D 28/D 0): Wrinkle area [%],Decreased wrinkle intensity (D 28/D 0): Wrinkle depth [%],Decreased wrinkle intensity (D 28/D 0): Wrinkle length [%]
Pro-Trp-Lys-Trp (PWKW) [SEQ NO ID 1],−10.92,−9.23,−14.97
"Pal-Pro-Thr-Lys-Trp (Palmitoyl-PTKW) [SEQ NO ID 2, N-palmitoylated peptide]",−7.81,−6.59,−11.76
